Data published in patent US9796907B2, “Invert emulsion gravel pack fluid and method” (Halliburton Energy Services, Inc., priority 2013, dated 2017).

Tested on: marine juvenile fish Cyprinodont varieties
Assay: Ecotoxicity to marine juvenile fish
Assay type: in vivo
Description: In addition, the fluid of the disclosure should have an acceptable health, safety, and environmental profile. The dimer diamine (or fatty acid dimer diamine) and polyurea components comprising the suspension agent are environmentally compatible.

CCCCCCCCCC(CCCCCCCCN)C(CCCCCCCC)CCCCCCCCCN (stereo not shown) [fatty acid dimer diamine, C36 fatty dimer diamine]
ecotoxicity to marine juvenile fish: low ecotoxicity
